The record followed here is patent US12060347B2 (BRISTOL-MYERS SQUIBB COMPANY, priority 2016, dated 2024).

This assay deals with T1, human PAR4 (Homo sapiens, UniProt Q96RI0).
T1 construct: expressed in transfected cells; host or cells: HEK293 PAR4 Clone 1.2A (BMS Arctic ID 383940)
T1 sequence (Q96RI0 18-385): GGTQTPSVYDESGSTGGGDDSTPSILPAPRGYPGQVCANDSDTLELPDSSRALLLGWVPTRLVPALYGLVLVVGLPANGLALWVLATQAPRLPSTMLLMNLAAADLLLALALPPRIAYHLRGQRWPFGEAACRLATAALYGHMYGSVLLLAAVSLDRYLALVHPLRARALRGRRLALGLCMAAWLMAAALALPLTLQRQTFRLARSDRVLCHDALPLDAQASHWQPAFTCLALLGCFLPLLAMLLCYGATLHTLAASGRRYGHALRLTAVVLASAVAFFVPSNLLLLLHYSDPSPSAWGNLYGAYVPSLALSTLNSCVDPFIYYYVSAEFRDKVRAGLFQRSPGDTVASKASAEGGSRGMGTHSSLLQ
The experiment in a line: PAR4 FLIPR assay: antagonism of agonist-peptide-induced calcium mobilization in PAR4-expressing HEK293 cells. It counts as cell-based. The note with it: H-Ala-Phe(4-F)-[…]NH2-induced intracellular calcium mobilization, 11-point curves.

For `COc1cnc2c(-c3nc4cc(F)c(O[C@@H](C)[C@@H](C)OC(=O)Nc5cnc(OC[C@@H](C)O)nc5)nc4s3)cc(C)cc2n1` [Example 729, (2R,3S)-3-((6-fluoro-2-(2-methoxy-7-methylquinoxalin-5-yl)thiazolo[5,4-b]pyridin-5-yl)oxy)butan-2-yl (2-((R)-2-hydroxypropoxy)pyrimidin-5-yl)carbamate], the IC50 (in general, the point on the concentration scale where inhibition reaches its midpoint) was found to be 2.8 nM.
As for `CCOc1cnc2c(-c3nc4cc(F)c(O[C@@H](C)[C@@H](C)OC(=O)Nc5cnc(CCO)nc5)cc4s3)cc(C)cc2n1` [Example 566, (2R,3S)-3-((2-(2-ethoxy-7-methylquinoxalin-5-yl)-5-fluorobenzo[d]thiazol-6-yl)oxy)butan-2-yl (2-(2-hydroxyethyl)pyrimidin-5-yl)carbamate], the IC50 is 1.8 nM.
For the compound `COCc1cnc2c(-c3nc4c(C)cc(OC(F)(F)F)cc4s3)cc(C)cc2n1` [Example 262, 2-(2-(methoxymethyl)-7-methylquinoxalin-5-yl)-4-methyl-6-(trifluoromethoxy)benzo[d]thiazole], the IC50 was 0.8 nM.
As to `COc1cnc2c(-c3nc4c(Cl)c(F)c(O[C@@H](C)[C@@H](C)OC(=O)Nc5cncc(F)c5)cc4s3)cc(C)cc2c1` [Example 804, (2R,3S)-3-((4-chloro-5-fluoro-2-(3-methoxy-6-methylquinolin-8-yl)benzo[d]thiazol-6-yl)oxy)butan-2-yl (5-fluoropyridin-3-yl)carbamate], the IC50 came to 2.8 nM.
Take `COc1cnc2c(-c3nc4c(Cl)c(F)c(OC[C@@H](C)OC(=O)Nc5ccc(CO)nc5)cc4s3)cc(C)cc2n1` [Example 385, (R)-1-((4-chloro-5-fluoro-2-(2-methoxy-7-methylquinoxalin-5-yl)benzo[d]thiazol-6-yl)oxy)propan-2-yl (6-(hydroxymethyl)pyridin-3-yl)carbamate]: the IC50 is 2.3 nM.
Take `Cc1ncc(NC(=O)O[C@H](C)[C@H](C)Oc2cc3sc(-c4cc(Cl)cc5cc(OC(F)F)cnc45)nc3cc2F)cn1` [Example 650, (2R,3S)-3-((2-(6-chloro-3-(difluoromethoxy)quinolin-8-yl)-5-fluorobenzo[d]thiazol-6-yl)oxy)butan-2-yl (2-methylpyrimidin-5-yl)carbamate]: the IC50 was 5.6 nM.
In the case of `COc1cnc2c(-c3nc4cc(F)c(O[C@@H](C)[C@@H](C)OC(=O)Nc5cncc(C)c5)cc4s3)cc(C)cc2n1` [Example 419, (2R,3S)-3-((5-fluoro-2-(2-methoxy-7-methylquinoxalin-5-yl)benzo[d]thiazol-6-yl)oxy)butan-2-yl (5-methylpyridin-3-yl)carbamate], the IC50 was found to be 2 nM.
Then `COCc1cnc2c(-c3nc4c(C5CC5)cc(OCCNS(=O)(=O)c5ccc(F)cc5)cc4s3)cc(C)cc2n1` [Example 105, N-(2-(4-cyclopropyl-2-(2-(methoxymethyl)-7-methylquinoxalin-5-yl)benzo[d]thiazol-6-yloxy)ethyl)-4-fluorobenzenesulfonamide], with 8.1 nM; and `COc1cnc2c(-c3nc4c(C)cc(OC[C@@H](C)OC(=O)Nc5cnc(F)c(C)c5)nc4s3)cc(C)cc2n1` [Example 734, (R)-1-((2-(2-methoxy-7-methylquinoxalin-5-yl)-7-methylthiazolo[5,4-b]pyridin-5-yl)oxy) propan-2-yl (6-fluoro-5-methylpyridin-3-yl)carbamate], with 1 nM.
For the compound `COc1cnc2c(-c3nc4cc(F)c(O[C@@H](C)[C@@H](C)OC(=O)Nc5ccnc(C(=O)NC[C@@H](C)O)c5)cc4s3)cc(C)cc2n1` [Example 452, (2R,3S)-3-((5-fluoro-2-(2-methoxy-7-methylquinoxalin-5-yl)benzo[d]thiazol-6-yl)oxy)butan-2-yl (2-(((R)-2-hydroxypropyl)carbamoyl)pyridin-4-yl)carbamate], the 50% inhibitory concentration (IC50) is 0.4 nM.
Consider `Cc1cc(-c2nc3c(C)cc(OCCNS(=O)(=O)c4ccc(F)cc4)cc3s2)c2ncc(OCF)nc2c1` [Example 34, 4-fluoro-N-(2-((2-(2-(fluoromethoxy)-7-methylquinoxalin-5-yl)-4-methylbenzo[d]thiazol-6-yl)oxy)ethyl)benzenesulfonamide], for which the IC50 came to 1.6 nM.
As for `COc1cnc2c(-c3nc4c(C(O)C(C)(C)C)cc(OCCOC(=O)Nc5ccncc5)cc4s3)cc(C)cc2n1` (centres unmarked) [Example 658, 2-((4-(1-hydroxy-2,2-dimethylpropyl)-2-(2-methoxy-7-methylquinoxalin-5-yl)benzo[d]thiazol-6-yl)oxy)ethyl pyridin-4-ylcarbamate], the figure is 3 nM; as for `Cc1cc(-c2nc3cc(F)c(O[C@@H](C)[C@@H](C)OC(=O)Nc4cnc(C)nc4)cc3s2)c2ncc(C(=O)N(C)C)nc2c1` [Example 615, (2R,3S)-3-((2-(2-(dimethylcarbamoyl)-7-methylquinoxalin-5-yl)-5-fluorobenzo[d]thiazol-6-yl)oxy)butan-2-yl (2-methylpyrimidin-5-yl)carbamate], 870 nM.
Turning to `COc1cnc2c(-c3nc4cc(F)c(OC[C@@H](C)OC(=O)Nc5ccc(N6CCOC6=O)nc5)cc4s3)cc(C)cc2n1` [Example 609, (R)-1-((5-fluoro-2-(2-methoxy-7-methylquinoxalin-5-yl)benzo[d]thiazol-6-yl)oxy)propan-2-yl (6-(2-oxooxazolidin-3-yl)pyridin-3-yl)carbamate], the IC50 came out at 1.9 nM.
Take `[2H]C([2H])([2H])OC([2H])([2H])c1cnc2c(-c3nc4c(C(O)C(C)(C)C)cc(OC)cc4s3)cc(C)cc2n1` (single isomer, unassigned) [Example 170, 1-(6-methoxy-2-(2-(methoxymethyl)-7-methylquinoxalin-5-yl)benzo[d]thiazol-4-yl)-2,2-dimethylpropan-1-ol-d5]: the IC50 worked out at 0.3 nM.
With `COc1cnc2c(-c3nc4cc(F)c(OC[C@@H](C)OC(=O)Nc5cnc(C(C)(C)O)nc5)cc4s3)cc(C)cc2n1` [Example 497, (R)-1-((5-fluoro-2-(2-methoxy-7-methylquinoxalin-5-yl)benzo[d]thiazol-6-yl)oxy)propan-2-yl (2-(2-hydroxypropan-2-yl)pyrimidin-5-yl)carbamate], the 50% inhibitory concentration (IC50) amounted to 1.3 nM.
Consider `COc1cnc2c(-c3nc4cc(F)c(O[C@@H](C)[C@@H](C)OC(=O)Nc5cnc(CO)nc5)nc4s3)cc(C)cc2n1` [Example 764, (2R,3S)-3-((6-fluoro-2-(2-methoxy-7-methylquinoxalin-5-yl)thiazolo[5,4-b]pyridin-5-yl)oxy)butan-2-yl (2-(hydroxymethyl)pyrimidin-5-yl)carbamate], for which the IC50 amounted to 1.7 nM.
Turning to `COc1cnc2c(-c3nc4cc(F)c(O[C@@H](C)[C@@H](C)OC(=O)Nc5cnc(OCCO)nc5)nc4s3)cc(Cl)cc2c1` [Example 774, (2R,3S)-3-((2-(6-chloro-3-methoxyquinolin-8-yl)-6-fluorothiazolo[5,4-b]pyridin-5-yl)oxy) butan-2-yl (2-(2-hydroxyethoxy)pyrimidin-5-yl)carbamate], the concentration for half-maximal inhibition (IC50) was 1.2 nM.
Then `Cc1cc(-c2nc3cc(F)ccc3s2)c2ncc(OC(F)F)nc2c1` [Example 60, 2-(2-(difluoromethoxy)-7-methylquinoxalin-5-yl)-5-fluorobenzo[d]thiazole], with 19 nM.
Take `CCOc1cnc2c(-c3nc4cc(F)c(O[C@@H](C)[C@@H](C)OC(=O)Nc5cnc(C)nc5)cc4s3)cc(Cl)cc2c1` [Example 649, (2R,3S)-3-((2-(6-chloro-3-ethoxyquinolin-8-yl)-5-fluorobenzo[d]thiazol-6-yl)oxy)butan-2-yl (2-methylpyrimidin-5-yl)carbamate]: the IC50 came to 7.4 nM.
Consider `COc1cnc2c(-c3nc4cc(F)c(OC[C@@H](C)OC(=O)Nc5cncnc5)cc4s3)cc(C)cc2n1` [Example 409, (R)-1-((5-fluoro-2-(2-methoxy-7-methylquinoxalin-5-yl)benzo[d]thiazol-6-yl)oxy)propan-2-yl pyrimidin-5-ylcarbamate], for which the IC50 amounted to 0.4 nM.
As for `Cc1cc(-c2nc3cc(F)c(O[C@@H](C)[C@@H](C)OC(=O)Nc4cnc(C)nc4)cc3s2)c2ncc(C(N)=O)nc2c1` [Example 613, (2R,3S)-3-((2-(2-carbamoyl-7-methylquinoxalin-5-yl)-5-fluorobenzo[d]thiazol-6-yl)oxy)butan-2-yl (2-methylpyrimidin-5-yl)carbamate], the figure is 65 nM; as for `COCc1cnc2c(-c3nc4c(C#N)cc(OCCNS(=O)(=O)c5ccc(F)cc5)cc4s3)cc(C)cc2n1` [Example 109, N-(2-(4-cyano-2-(2-(methoxymethyl)-7-methylquinoxalin-5-yl)benzo[d]thiazol-6-yloxy)ethyl)-4-fluorobenzenesulfonamide], 8.3 nM; as for `COc1ccc2[nH]c(-c3cc(C)cc4nc(OC(F)F)cnc34)nc2c1` [Example 50, 2-(difluoromethoxy)-5-(5-methoxy-1H-benzo[d]imidazol-2-yl)-7-methylquinoxaline], 92 nM.
As for `COc1cnc2c(-c3nc4cc(F)c(OC)cc4s3)cc(C#N)cc2n1` [Example 221, 8-(5-fluoro-6-methoxybenzo[d]thiazol-2-yl)-3-methoxyquinoxaline-6-carbonitrile], the concentration for half-maximal inhibition (IC50) turned out to be 21 nM.
For the compound `CCCOc1cnc2c(-c3nc4cc(F)c(O[C@@H](C)[C@@H](C)OC(=O)Nc5cnc(C)nc5)cc4s3)cc(C)cc2n1` [Example 491, (2R,3S)-3-((5-fluoro-2-(7-methyl-2-propoxyquinoxalin-5-yl)benzo[d]thiazol-6-yl)oxy)butan-2-yl (2-methylpyrimidin-5-yl)carbamate], the IC50 stood at 0.4 nM.
